Measured values from patent US10555950B2, “Bile acid recycling inhibitors for treatment of obesity and diabetes” (Satiogen Pharmaceuticals, Inc., priority 2008, dated 2020).
Entries after “also recorded” stand apart in the source; their conditions may differ.

Key:
[1] = system: diabetic db/db mice; assay: Oral Compound 100A/100B plus sitagliptin versus subcutaneous exenatide, blood glucose at 3 hours (Example 9); format: in vivo; conditions: FIG. 10
[2] = system: male db/db mice; assay: In vivo assay for reduction in blood glucose levels (Example 6, Compound 100A with or without sitagliptin); conditions: for reduction in plasma glucose from baseline: after 6 hours
Protocol: FIG. 1 illustrates the change in plasma glucose level in diabetic db/db mice after oral administration of a combination of the ASBTI (−)-(3R,5R)-trans-3-butyl-3-ethyl-2,3,4,5-tetrahydro-7,8-dimethoxy-5-phenyl-1,4-benzothiazepine1,1-dioxide at doses of 0, 0.1, 1, 10 mg/kg and 30 mg/kg sitagliptin (DPP-IV inhibitor) and the ASBTI alone.
FIG. 9 illustrates the change in body weight 24 h after administration of the ASBTI (−)-(3R,5R)-trans-3-butyl-3-ethyl-2,3,4,5-tetrahydro-7,8-dimethoxy-5-phenyl-1,4-benzothiazepine1,1-dioxide (100A) at doses of 0, 0.1, 1, 10 mg/kg in combination with 30 mg/kg sitagliptin (DPP-IV inhibitor) and the ASBTI alone.
Male db/db mice 6-7 weeks (approx 30 g) were fasted for 2 h. A combination of (−)-(3R,5R)-trans-3-butyl-3-ethyl-2,3,4,5-tetrahydro-7,8-dimethoxy-5-phenyl-1,4-benzothiazepine 1,1-dioxide (Compound 100A) at doses of 0, 0.1, 1, 10, mg/kg in 10% of DMSO-water and 30 mg/kg sitagliptin (DPP-IV inhibitor) in a mixture of valine-pyrrolidine in water was administered orally to male db/db mice (n=7-10 per group). Blood sample (˜1 μl from tail for glucose level testing) was taken at t=−24 h, 0, 60, 180, 240, 300, 360 min and 24 h after administration.

[3] = system: plasma GLP-1 level; assay: Plasma GLP-1 levels in normal rats after oral ASBTI or metformin with DPP-IV inhibitor (Example 8); format: in vivo; conditions: for plasma GLP-1 level, ASBTI in combination with sitagliptin: oral 3, 30, 100 mg/kg + 30 mg/kg sitagliptin; for plasma GLP-1 level, ASBTI in combination with sitagliptin / plasma GLP-1 level, ASBTI alone: 0-5 h; for plasma GLP-1 level, ASBTI alone: oral 3, 30, 100 mg/kg
Protocol: 12-week-old male HSD rats were fasted for 16 h and given oral dose of 0, 3, 30, 100 mg/kg of the ASBTI 1-[4-[4-[(4R,5R)-3,3-dibutyl-7-(dimethylamino)-2,3,4,5-tetrahydro-4-hydroxy-1,1-dioxido-1-benzothiepin-5-yl]phenoxy]butyl]4-aza-1-azoniabicyclo[2.2.2]octane methane sulfonate (Synthesized by Nanosyn Inc., CA, USA) or metformin (Control, 0, 3, 30, 100, 300 mg/kg) in saline and a dose of 30 mg/kg sitaglipin in a mixture of valine-pyrrolidine in water (n=5 per group). Blood samples in volume of 0.6 ml for each time point were taken from the caudal vein with a heparinized capillary tube 0, 1, 3 and 5 h after the administration of compounds and plasma GLP-1 level were determined. Aprotinin and 10 μl of DPP-IV inhibitor per ml of blood were used for blood sample preservation during 10 min centrifugation and for storage at −70° C. or below. GLP-1 (Active pM) was tested by Millipore ELISA Kits (Millipore Corporation, 290 Concord Road, Billerica, Mass.).

[4] = system: diabetic db/db mice; assay: Plasma glucose in diabetic db/db mice after oral metformin plus sitagliptin (FIG. 3); format: in vivo; conditions: combination of metformin and sitagliptin
Protocol: FIG. 3 illustrates the change in plasma glucose level in diabetic db/db mice after oral administration of a combination of metformin at doses of 0, 3, 30, 100, 300 mg/kg and 30 mg/kg sitagliptin (DPP-IV inhibitor).

[5] = system: male db/db mice; assay: In vivo assay for reduction in blood glucose levels (Example 7, Compound 100B with or without sitagliptin); conditions: for reduction in plasma glucose from baseline: after 6 hours, oral
Protocol: Male db/db mice 8-9 weeks (approx 40 g) were fasted for 2 h. A combination of 1-[4-[4-[(4R,5R)-3,3-dibutyl-7-(dimethylamino)-2,3,4,5-tetrahydro-4-hydroxy-1,1-dioxido-1-benzothiepin-5-yl]phenoxy]butyl]4-aza-1-azoniabicyclo[2.2.2]octane methane sulfonate (Compound 100B) at doses of 0, 3, 30, 100 mg/kg in saline-water and 30 mg/kg sitagliptin (DPP-IV inhibitor) in a mixture of valine-pyrrolidine in water was administered orally to male db/db mice (n=6-11 per group). Blood sample (˜1 μl from tail for glucose level testing) was taken at t=−24 h, 0, 1, 3, 4, 5, 6 h and 24 h after administration.

[6] = FIG. 6, 7, listed as 1-[4-[4-[(4R,5R)-3,3-dibutyl-7-(dimethylamino)-2,3,4,5-tetrahydro-4-hydroxy-1,1-

CCCC[C@]1(CC)CS(=O)(=O)c2cc(OC)c(OC)cc2[C@@H](c2ccccc2)N1 (relative stereo) [Compound 100A, (−)-(3R,5R)-trans-3-butyl-3-ethyl-2,3,4,5-tetrahydro-7,8-dimethoxy-5-phenyl-1,4-benzothiazepine1,1-dioxide]
reduction of plasma glucose levels ([1]; 3 hours post-dose, oral 10 mg/kg + 30 mg/kg sitagliptin): 35%

CCCC[C@]1(CC)CS(=O)(=O)c2cc(OC)c(OC)cc2[C@@H](c2ccccc2)N1
change in body weight ([2]; 24 h after administration, 0.1-10 mg/kg with 30 mg/kg sitagliptin and ASBTI alone, FIG. 9): Weight loss
plasma glucose concentrations, ASBTI alone ([2]; ASBTI alone, oral, FIG. 1): lowers plasma glucose concentrations
reduction in plasma glucose from baseline ([2]; 01 mg/kg (so in the source) + 30 mg/kg sitagliptin, oral): 5.6%
reduction in plasma glucose from baseline ([2]; 1 mg/kg + 30 mg/kg sitagliptin, oral): 15%
reduction in plasma glucose from baseline ([2]; 10 mg/kg + 30 mg/kg sitagliptin, oral): 42.3%
reduction of the elevated blood glucose levels ([2]; single oral administration, 0.1-10 mg/kg in combination with 30 mg/kg sitagliptin, compared to sitagliptin alone or vehicle, FIG. 1): dose-dependent reduction of the elevated blood glucose levels

CN(C)C(=N)N=C(N)N [metformin, reference compound]
plasma GLP-1 level, metformin in combination with sitagliptin ([3]; oral metformin 30, 100, 300 mg/kg + 30 mg/kg sitagliptin, FIG. 5): dose-dependent increase in plasma GLP-1 level; also recorded: elevation in GLP-1 levels in plasma
duration of reduced plasma glucose concentrations [4]: about 6 hours

CCCCC1(CCCC)CS(=O)(=O)c2ccc(N(C)C)cc2[C@@H](c2ccc(OCCCC[N+]34CCN(CC3)CC4)cc2)[C@H]1O.CS(=O)(=O)[O-] [Compound 100B, 1-[4-[4-[(4R,5R)-3,3-dibutyl-7-(dimethylamino)-2,3,4,5-tetrahydro-4-hydroxy-1,1-dioxido-1-benzothiepin-5-yl]phenoxy]butyl]4-aza-1-azoniabicyclo[2.2.2]octane methane sulfonate salt]
change in body weight ([5]; 24 h after administration, 3-100 mg/kg with 30 mg/kg sitagliptin, FIG. 8): Weight loss
plasma glucose levels, ASBTI alone ([5]; ASBTI alone, 3, 30, 100 mg/kg oral, FIG. 4): lowers plasma glucose levels in dose dependent manner
reduction in plasma glucose from baseline ([5]; 3 mg/kg + 30 mg/kg sitagliptin): 5.6%
reduction in plasma glucose from baseline ([5]; 30 mg/kg + 30 mg/kg sitagliptin): 15%
reduction in plasma glucose from baseline ([5]; 100 mg/kg + 30 mg/kg sitagliptin): 42.3%
reduction of the elevated blood glucose levels ([5]; single oral administration, 3-100 mg/kg in combination with 30 mg/kg sitagliptin, compared to sitagliptin alone or vehicle, FIG. 2): dose-dependent reduction of the elevated blood glucose levels
plasma GLP-1 level, ASBTI in combination with sitagliptin ([3]; FIG. 6, 7): dose-dependent increase in plasma GLP-1 level
plasma GLP-1 level, ASBTI in combination with sitagliptin [3, 6]: dose-dependent increase in plasma GLP-1 level; also recorded: elevation in GLP-1 levels in a dose-dependent manner
plasma GLP-1 level, ASBTI alone ([3]; FIG. 6, 7): dose-dependent increase in plasma GLP-1 level
plasma GLP-1 level, ASBTI alone [3, 6]: dose-dependent increase in plasma GLP-1 level; also recorded: elevation in GLP-1 levels in a dose-dependent manner
blood glucose lowering compared with exenatide ([1]; 3 hours after dosing, oral + 30 mg/kg sitagliptin versus single subcutaneous 0.02 mg/kg exenatide): reduces blood glucose levels more than a single subcutaneous injection of 0.02 mg/kg exenatide

N[C@@H](CC(=O)N1CCn2c(nnc2C(F)(F)F)C1)Cc1cc(F)c(F)cc1F [sitagliptin, (3R)-3-amino-1-[9-(trifluoromethyl)-1,4,7,8-tetrazabicyclo[4.3.0]nona-6,8-dien-4-yl]-4-(2,4,5-trifluorophenyl)butan-1-one, reference compound]
reduction in plasma glucose from baseline ([2]; 0 mg/kg ASBTI + 30 mg/kg sitagliptin, oral): 5.5%
reduction in plasma glucose from baseline ([5]; 0 mg/kg ASBTI + 30 mg/kg sitagliptin): 5.5%
